As a reminder, the IC50 is the point on the concentration scale where inhibition reaches its midpoint. As a reminder, the Ki is the equilibrium dissociation constant of an inhibitor or competing ligand from its target.

Experiment [1] deals with T1, M-phase inducer phosphatase 2 (Homo sapiens, UniProt P30305).
T1 sequence (P30305 whole entry): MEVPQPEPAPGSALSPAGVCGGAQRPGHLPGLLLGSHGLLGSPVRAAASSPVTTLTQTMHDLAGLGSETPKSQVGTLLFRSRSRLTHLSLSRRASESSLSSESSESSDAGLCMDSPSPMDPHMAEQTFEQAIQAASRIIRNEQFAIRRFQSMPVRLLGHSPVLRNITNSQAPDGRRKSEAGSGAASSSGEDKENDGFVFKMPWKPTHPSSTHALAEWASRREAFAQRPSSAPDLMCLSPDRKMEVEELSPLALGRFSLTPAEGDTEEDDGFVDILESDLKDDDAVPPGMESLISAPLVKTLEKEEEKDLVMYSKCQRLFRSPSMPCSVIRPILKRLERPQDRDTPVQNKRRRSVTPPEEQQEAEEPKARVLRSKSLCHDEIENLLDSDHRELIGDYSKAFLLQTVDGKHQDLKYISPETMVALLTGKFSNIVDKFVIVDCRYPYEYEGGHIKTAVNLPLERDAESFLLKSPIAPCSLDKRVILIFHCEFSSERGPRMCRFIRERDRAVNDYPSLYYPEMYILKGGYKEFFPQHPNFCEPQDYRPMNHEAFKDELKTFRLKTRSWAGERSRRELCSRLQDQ
Kind of experiment: In vitro inhibitory activity against human recombinant Cdc25B phosphatase enzyme.

For experiment [2], the target named is T2, Tyrosine-protein phosphatase non-receptor type 1 (Homo sapiens, UniProt P18031).
T2 sequence (P18031 whole entry): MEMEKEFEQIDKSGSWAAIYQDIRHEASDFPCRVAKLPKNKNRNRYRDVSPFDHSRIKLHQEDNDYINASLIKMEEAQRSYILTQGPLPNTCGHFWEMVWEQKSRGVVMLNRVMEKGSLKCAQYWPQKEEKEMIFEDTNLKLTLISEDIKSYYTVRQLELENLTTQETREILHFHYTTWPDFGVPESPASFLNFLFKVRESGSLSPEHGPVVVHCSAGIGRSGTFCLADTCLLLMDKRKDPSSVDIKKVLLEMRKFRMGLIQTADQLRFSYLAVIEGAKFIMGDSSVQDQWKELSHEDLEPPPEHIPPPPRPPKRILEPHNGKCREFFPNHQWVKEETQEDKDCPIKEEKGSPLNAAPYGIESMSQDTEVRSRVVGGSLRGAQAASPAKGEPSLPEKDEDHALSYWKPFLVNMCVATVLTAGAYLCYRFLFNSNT
Kind of experiment: In vitro inhibitory activity against human recombinant PTP1B phosphatase enzyme.

The target in experiment [3] is T3, Dual specificity protein phosphatase 3 (Homo sapiens, UniProt P51452). Put plainly: In vitro inhibitory activity against human recombinant VHR phosphatase enzyme.
T3 sequence (P51452 whole entry): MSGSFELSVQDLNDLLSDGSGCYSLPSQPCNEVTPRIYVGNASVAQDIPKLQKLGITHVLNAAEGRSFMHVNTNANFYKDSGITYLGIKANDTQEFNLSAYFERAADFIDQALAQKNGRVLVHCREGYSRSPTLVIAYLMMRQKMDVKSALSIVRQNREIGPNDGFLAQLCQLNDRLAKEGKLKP
In experiment [4] the target is T2, Tyrosine-protein phosphatase non-receptor type 1. Put plainly: In vitro inhibitory activity against human recombinant Protein-tyrosine phosphatase 1B.
The target of experiment [5] is T1, M-phase inducer phosphatase 2. Kind of experiment: In vitro inhibitory activity against human recombinant Cell division cycle 25B.
The target in experiment [6] is T3, Dual specificity protein phosphatase 3. Kind of experiment: In vitro inhibitory activity against human recombinant Dual specificity protein phosphatase 3 enzyme.
The target in experiment [7] is T1, M-phase inducer phosphatase 2. Kind of experiment: Inhibitory activity against human recombinant Cdc25B phosphatase enzyme.

`CCCc1sc(NS(=O)(=O)/C=C/c2ccccc2Cl)nc1-c1ccc(-c2ccccc2)cc1`: the IC50 in experiment [1] is over 100 µM; in experiment [2], over 100 µM; in experiment [3] it was 82 µM.

Consider `CCc1sc(NS(=O)(=O)/C=C/c2ccccc2Cl)nc1-c1ccccc1`, for which the IC50 in experiment [1], in experiment [2] and in experiment [3] was over 100 µM each time.

For `CCCc1sc(NS(=O)(=O)/C=C/c2ccc(C)cc2)nc1-c1ccc(-c2ccccc2)cc1`, the IC50 in experiment [1] was 46 µM; in experiment [2], 58 µM; in experiment [3], 21 µM.

`CCCc1sc(NS(=O)(=O)/C=C/c2ccc(F)c(F)c2)nc1-c1ccc(-c2ccccc2)cc1`: the IC50 in experiment [4] was 77 µM; in experiment [5], 40 µM; in experiment [6], 22 µM.

For the molecule `Cc1ccc(/C=C/S(=O)(=O)Nc2nc(-c3ccccc3)c(-c3ccccc3)s2)cc1`, the 50% inhibitory concentration (IC50) in experiment [1], in experiment [2] and in experiment [3] was over 100 µM in each case.

Regarding `O=S(=O)(/C=C/c1ccccc1Cl)Nc1nc(-c2ccc(Cl)cc2)cs1`, the IC50 is 89 µM in experiment [1], over 100 µM in experiment [2] and over 100 µM in experiment [3].

With `O=S(=O)(/C=C/c1ccc(C(F)(F)F)cc1)Nc1nc(-c2ccccc2)c(-c2ccccc2)s1`, the IC50 in experiment [1] is 34 µM; in experiment [2] it was 36 µM; in experiment [3] it was 25 µM.

For `CCCc1sc(NS(=O)(=O)/C=C/c2ccc3ccccc3c2)nc1-c1ccc(-c2ccccc2)cc1`, the IC50 in experiment [1] was over 100 µM; in experiment [2], over 100 µM; in experiment [3], 57 µM.

As to `CCCc1sc(NS(=O)(=O)/C=C/c2ccc(F)c(F)c2)nc1-c1ccc(C(F)(F)F)cc1`, the IC50 in experiment [1] was 25 µM; in experiment [2], 29 µM; in experiment [3], 31 µM.

Regarding `O=S(=O)(/C=C/c1ccc(-c2ccccc2)cc1)Nc1nc(-c2ccccc2)c(-c2ccccc2)s1`, the IC50 in experiment [1] stood at 70 µM; in experiment [2], 90 µM; in experiment [3], 34 µM.

For the molecule `N#Cc1ccc(/C=C/S(=O)(=O)Nc2nc(-c3ccccc3)c(-c3ccccc3)s2)cc1`, the IC50 is 76 µM in experiment [1], 58 µM in experiment [2] and 32 µM in experiment [3].

As for `CCc1sc(NS(=O)(=O)/C=C/c2ccc([N+](=O)[O-])cc2)nc1-c1ccccc1`, the IC50 worked out at 88 µM in experiment [1], 83 µM in experiment [2] and 50 µM in experiment [3].

Regarding `CCCc1sc(NS(=O)(=O)/C=C/c2ccc(F)c(F)c2)nc1-c1ccc(Cl)cc1`, the IC50 was 21 µM in experiment [1], 20 µM in experiment [2] and 20 µM in experiment [3].

With `Cc1sc(NS(=O)(=O)/C=C/c2ccc(F)c(F)c2)nc1-c1ccc(Cl)cc1`, the IC50 in experiment [1] came to 33 µM; in experiment [2], 51 µM; in experiment [3], 43 µM.

For the molecule `O=S(=O)(/C=C/c1ccc2ccccc2c1)Nc1nc(-c2ccccc2)c(-c2ccccc2)s1`, the IC50 in experiment [1] is 22 µM; in experiment [2] it was 45 µM; in experiment [3] it was 30 µM. The Ki in experiment [7] turned out to be 36 µM.

Turning to `CCc1sc(NS(=O)(=O)/C=C/c2ccc3ccccc3c2)nc1-c1ccccc1`, the 50% inhibitory concentration (IC50) was 89 µM in experiment [1], over 100 µM in experiment [2] and 32 µM in experiment [3].

Turning to `O=S(=O)(/C=C/c1ccccc1Cl)Nc1nc(-c2ccccc2)c(-c2ccccc2)s1`, the concentration for half-maximal inhibition (IC50) in experiment [1] was 26 µM; in experiment [2], 38 µM; in experiment [3] it was 40 µM.

On to `CCCc1sc(NS(=O)(=O)/C=C/c2ccc(C(F)(F)F)cc2)nc1-c1ccc(-c2ccccc2)cc1`, for which the IC50 in experiment [1] is 92 µM; in experiment [2], over 100 µM; in experiment [3] it was 42 µM.

As for `CCCc1sc(NS(=O)(=O)/C=C/c2ccc(C)cc2)nc1-c1ccc(C(F)(F)F)cc1`, the values for the half-maximal inhibitory concentration (IC50) in experiment [1], in experiment [2] and in experiment [3] were 20 µM, 20 µM and 31 µM, respectively.

For the molecule `CCCCc1ccc(/C=C/S(=O)(=O)Nc2nc(-c3ccccc3)c(-c3ccccc3)s2)cc1`, the IC50 was 58 µM in experiment [1], over 100 µM in experiment [2] and 39 µM in experiment [3].

As for `CCCCc1ccc(/C=C/S(=O)(=O)Nc2nc(-c3ccc(-c4ccccc4)cc3)c(CCC)s2)cc1`, the IC50 in experiment [1] is 80 µM; in experiment [2], over 100 µM; in experiment [3], 54 µM.

`CCCc1sc(NS(=O)(=O)/C=C/c2ccccc2Cl)nc1-c1ccc(Cl)cc1`: the IC50 in experiment [1] was determined as 26 µM; in experiment [2] it was 24 µM; in experiment [3] it was 32 µM. Moreover, in experiment [7], the Ki is 4.6 µM.

Regarding `CCCCCCCCC/C=C/S(=O)(=O)Nc1nc(-c2ccccc2)c(-c2ccccc2)s1`, the IC50 in experiment [1] is 33 µM; in experiment [2], 49 µM; in experiment [3] it was 24 µM.

Consider `CCCCCCCCCCc1sc(NS(=O)(=O)/C=C/c2ccccc2Cl)nc1-c1ccccc1`, for which the IC50 in experiment [1], in experiment [2] and in experiment [3] was over 100 µM throughout.

For the molecule `Cc1sc(NS(=O)(=O)/C=C/c2ccccc2Cl)nc1-c1ccc(Cl)cc1`, the IC50 in experiment [1], in experiment [2] and in experiment [3] was over 100 µM in each case.

With `CCc1sc(NS(=O)(=O)/C=C/c2ccc(S(C)(=O)=O)cc2)nc1-c1ccccc1`, the IC50 in experiment [1], in experiment [2] and in experiment [3] was over 100 µM each time.

In the case of `CCCc1sc(NS(=O)(=O)/C=C/c2ccc(-c3ccccc3)cc2)nc1-c1ccc(Cl)cc1`, the IC50 in experiment [1] is 38 µM; in experiment [2], 35 µM; in experiment [3] it was 27 µM.

On to `COc1ccc(/C=C/S(=O)(=O)Nc2nc(-c3ccccc3)c(-c3ccccc3)s2)cc1OC`, for which the half-inhibitory concentration (IC50) in experiment [1], in experiment [2] and in experiment [3] was over 100 µM each time.

As for `CCCc1sc(NS(=O)(=O)/C=C/c2ccc(C)cc2)nc1-c1ccc(Cl)cc1`, the IC50 in experiment [1] was 34 µM; in experiment [2] it was 32 µM; in experiment [3], 48 µM.

With `O=[N+]([O-])c1ccc(/C=C/S(=O)(=O)Nc2nc(-c3ccccc3)c(-c3ccccc3)s2)cc1`, the results for the IC50 in experiment [1], in experiment [2] and in experiment [3] were 54 µM, 58 µM and 47 µM, respectively.

As to `CCCc1sc(NS(=O)(=O)/C=C/c2ccccc2Cl)nc1-c1ccc(C(F)(F)F)cc1`, the half-inhibitory concentration (IC50) in experiment [1] is 14 µM; in experiment [2], 10 µM; in experiment [3], 25 µM.

On to `COC(=O)c1ccc(/C=C/S(=O)(=O)Nc2nc(-c3ccccc3)c(-c3ccccc3)s2)cc1`, for which the IC50 in experiment [1] was 26 µM; in experiment [2], 59 µM; in experiment [3] it was 20 µM.

`O=S(=O)(/C=C/c1ccco1)Nc1nc(-c2ccccc2)c(-c2ccccc2)s1`: the IC50 in experiment [1], in experiment [2] and in experiment [3] was over 100 µM in each case.

In the case of `O=S(=O)(/C=C/c1ccc(F)c(F)c1)Nc1nc(-c2ccccc2)c(-c2ccccc2)s1`, the IC50 in experiment [1] was found to be 72 µM; in experiment [2], 85 µM; in experiment [3], 33 µM.

Regarding `CCCc1sc(NS(=O)(=O)/C=C/c2ccc3ccccc3c2)nc1-c1ccc2ccccc2c1`, the IC50 is 69 µM in experiment [1], 98 µM in experiment [2] and 34 µM in experiment [3].
